Experimental data published in paper PMC5011342, “A high throughput drug screening assay to identify compounds that promote oligodendrocyte differentiation using acutely dissociated and purified oligodendrocyte precursor cells” (BMC Research Notes, 2016).
Read-outs that look alike come from different tables or passages of the source.

Key:
[1] = test system: acutely dissociated and purified rat OPCs; assay: Acute OL differentiation assay (MBP expression/cell, immunofluorescent image quantification); format: cell-based
Method in brief: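 This acute differentiation assay used purified rat OPCs from postnatal day 6–7 pups, seeded into PDL/laminin-coated 96-well plates in differentiation medium lacking PDGF and FGF. Compounds were applied in quadruplicate after a 1–2 h preincubation at 37 °C, 10 % CO2, with 0.1 % DMSO negative and 40 ng/ml T3 positive controls in eight wells. After fixation on DIV4, anti-MBP immunofluorescence images yielded MBP expression/cell.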

expanded OPCs = assay: cells; conditions: for viability at 0.1 µM / viability at 1 µM / viability at 10 µM: Rattus norvegicus, 72 h
Method in brief: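 Toxicity screen: compounds added at 0.1, 1 and 10 µM to PDGF-AA-expanded OPCs in 96-well plates, 3-day incubation at 37 °C, 10% CO2, then alamarBlue 1:10 for 4 h with fluorescence readout. Results set screening doses of 10/2, 2/0.4 or 0.4/0.08 µM.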

[2] = Rattus norvegicus, 2 uM test compound, relative to quetiapine, sheet "All OLga data", read-out: OL differentiation, 2 uM (% Quet)
[3] = Rattus norvegicus, 10 uM test compound, relative to quetiapine, sheet "All OLga data", read-out: OL differentiation, 10 uM (% Quet)
[4] = read-out: 0.1 µM (% DMSO), alamarBlue viability of expanded OPCs, compound at 0.1 µM, sheet All Tox data
[5] = read-out: 1 µM (% DMSO), alamarBlue viability of expanded OPCs, compound at 1 µM, sheet All Tox data
[6] = read-out: 10 µM (% DMSO), alamarBlue viability of expanded OPCs, compound at 10 µM, sheet All Tox data
[7] = Rattus norvegicus, 0.4 uM test compound, relative to quetiapine, sheet "All OLga data", read-out: OL differentiation, 0.4 uM (% Quet)
[8] = Rattus norvegicus, test compound at 0.4 uM, NCC library screen, sheet "All OLga data", relative to quetiapine, read-out: 0.4 uM (% Quet)
[9] = read-out: 0.1 µM (% DMSO), alamarBlue viability, NCC library compound at 0.1 µM, sheet "All Tox data"
[10] = read-out: 1 µM (% DMSO), alamarBlue viability, NCC library compound at 1 µM, sheet "All Tox data"
[11] = read-out: 10 µM (% DMSO), alamarBlue viability, NCC library compound at 10 µM, sheet "All Tox data"
[12] = Rattus norvegicus, test compound at 2 uM, NCC library screen, sheet "All OLga data", relative to quetiapine, read-out: 2 uM (% Quet)
[13] = Rattus norvegicus, test compound at 10 uM, NCC library screen, sheet "All OLga data", relative to quetiapine, read-out: 10 uM (% Quet)
[14] = Rattus norvegicus, test compound at 2 uM, MBP expression relative to quetiapine, NCC library screen, sheet "All OLga data", read-out: 2 uM (% Quet)
[15] = Rattus norvegicus, test compound at 10 uM, MBP expression relative to quetiapine, NCC library screen, sheet "All OLga data", read-out: 10 uM (% Quet)
[16] = alamarBlue viability of expanded OPCs, compound at 0.1 µM, relative to DMSO control
[17] = alamarBlue viability of expanded OPCs, compound at 1 µM, relative to DMSO control
[18] = alamarBlue viability of expanded OPCs, compound at 10 µM, relative to DMSO control

Row | SMILES | activation at 2 µM [1, 2] [%] | activation at 10 µM [1, 3] [%] | viability at 0.1 µM (expanded OPCs; [4]) [%] | viability at 1 µM (expanded OPCs; [5]) [%] | viability at 10 µM (expanded OPCs; [6]) [%] | viability at 0.1 µM (expanded OPCs; [9]) [%] | viability at 1 µM (expanded OPCs; [10]) [%] | viability at 10 µM (expanded OPCs; [11]) [%] | activation at 2 µM [1, 12] [%] | other results
1 | O=C(O)CCc1nc(-c2ccccc2)c(-c2ccccc2)o1 [Oxaprozin] | -15.3 | -15 | 91.8 | 86.6 | 78 |  |  |  |  | 
2 | NC(=O)N1c2ccccc2CC(=O)c2ccccc21 [Oxcarbazepine] | -28.9 | -57.8 | 102 | 92 | 73.5 |  |  |  |  | 
3 | Clc1ccc(CO/N=C(\Cn2ccnc2)c2ccc(Cl)cc2Cl)c(Cl)c1 [Oxiconazole] |  |  | 131 | 195 | 11.7 |  |  |  |  | activation at 0.4 µM [1, 7]: 96.5%
4 | C[C@]12C/C(=C/O)C(=O)C[C@@H]1CC[C@@H]1[C@@H]2CC[C@@]2(C)[C@H]1CC[C@]2(C)O [Oxymetholone] | -31.7 |  | 82.4 | 79.2 | 48.9 |  |  |  |  | activation at 0.4 µM [1, 7]: -20%
5 | CN1CC[C@]23c4c5ccc(O)c4O[C@H]2c2[nH]c4ccccc4c2C[C@@]3(O)[C@H]1C5 [Oxymorphindole] |  |  |  |  |  | 85.7 | 54.1 | 12 |  | activation at 0.08 µM ([1]; Rattus norvegicus, test compound at 0.08 uM, NCC library screen, sheet "All OLga data", relative to quetiapine, read-out: 0.08 uM (% Quet)): -8.6%; activation at 0.4 µM [1, 8]: -51.8%
6 | CC[N+](C)(CC)CCOC(=O)C(O)(c1ccccc1)C1CCCCC1 (centres unmarked) [Oxyphenonium] |  |  |  |  |  | 92.5 | 97.2 | 94.9 | -6.1 | activation at 10 µM [1, 13]: 36.4%
7 | CN(C)[C@@H]1C(O)=C(C(N)=O)C(=O)[C@@]2(O)C(O)=C3C(=O)c4c(O)cccc4[C@@](C)(O)[C@H]3[C@H](O)[C@@H]12 [Oxytetracycline] |  |  |  |  |  |  |  |  |  | activation at 2 µM [1, 14]: -42.7%; activation at 10 µM [1, 15]: -36.7%; 0.1 µM (% DMSO) (expanded OPCs; [16]): 98.0 % DMSO; 1 µM (% DMSO) (expanded OPCs; [17]): 97.7 % DMSO; 10 µM (% DMSO) (expanded OPCs; [18]): 93.6 % DMSO
8 | O=C(O)/C=C/c1ccc(Cn2ccnc2)cc1 [Ozagrel] | -6.1 | -20.6 | 82.8 | 85.9 | 92.2 |  |  |  |  | 
9 | Cc1sc(N)c(C(=O)c2cccc(C(F)(F)F)c2)c1C [PD 81723] |  |  |  |  |  |  |  |  |  | 0.4 uM (% Quet) ([1]; test compound at 0.4 uM, NCC library screen, sheet "All OLga data", relative to quetiapine): 4.2 % Quet; 2 uM (% Quet) ([1]; test compound at 2 uM, NCC library screen, sheet "All OLga data", relative to quetiapine): -21.8 % Quet; 0.1 µM (% DMSO) (expanded OPCs; alamarBlue viability, NCC library compound at 0.1 µM, sheet "All Tox data"): 90.2 % DMSO; 1 µM (% DMSO) (expanded OPCs; alamarBlue viability, NCC library compound at 1 µM, sheet "All Tox data"): 90.8 % DMSO; 10 µM (% DMSO) (expanded OPCs; alamarBlue viability, NCC library compound at 10 µM, sheet "All Tox data"): 57.3 % DMSO
10 | O=C1c2cccc3c2[C@H](CCC3)CN1[C@@H]1CN2CCC1CC2 [Palonosetron] |  |  |  |  |  | 93 | 92.4 | 72.1 | 13.3 | activation at 10 µM [1, 13]: 29.7%
11 | CC(=O)O[C@H]1C[C@@H]2CC[C@@H]3[C@H](CC[C@@]4(C)[C@H]3C[C@H]([N+]3(C)CCCCC3)[C@@H]4OC(C)=O)[C@@]2(C)C[C@@H]1[N+]1(C)CCCCC1 [Pancuronium] | 14.7 | 8.2 | 83.3 | 83.2 | 88 |  |  |  |  | 
12 | COc1ccnc(C[S+]([O-])c2nc3ccc(OC(F)F)cc3[nH]2)c1OC (centres unmarked) [Pantoprazole] | 8.8 | -5.3 | 94.1 | 91.1 | 95.2 |  |  |  |  | 
13 | CCC(=O)NS(=O)(=O)c1ccc(-c2c(-c3ccccc3)noc2C)cc1 [Parecoxib] |  |  |  |  |  | 90.9 | 87.2 | 95.5 | -1.5 | activation at 10 µM [1, 13]: -3%
14 | Fc1ccc([C@@H]2CCNC[C@H]2COc2ccc3c(c2)OCO3)cc1 [Paroxetine] |  |  | 70.7 | 38.3 | 11.7 |  |  |  |  | activation at 0.08 µM ([1]; Rattus norvegicus, 0.08 uM test compound, relative to quetiapine, sheet "All OLga data", read-out: OL differentiation, 0.08 uM (% Quet)): 16.2%; activation at 0.4 µM [1, 7]: -6.1%; activation at 0.08 µM ([1]; Rattus norvegicus, test compound at 0.08 uM, MBP expression relative to quetiapine, NCC library screen, sheet "All OLga data", read-out: 0.08 uM (% Quet)): -4.5%; activation at 0.4 µM ([1]; Rattus norvegicus, test compound at 0.4 uM, MBP expression relative to quetiapine, NCC library screen, sheet "All OLga data", read-out: 0.4 uM (% Quet)): -15.9%; 0.1 µM (% DMSO) (expanded OPCs; [16]): 63.3 % DMSO; 1 µM (% DMSO) (expanded OPCs; [17]): 27.9 % DMSO; 10 µM (% DMSO) (expanded OPCs; [18]): 8.3 % DMSO
15 | C[C@H]1COc2c(C3(N)CC3)c(F)cc3c(=O)c(C(=O)O)cn1c23 [Pazufloxacin] | 1.9 | -11 | 95.3 | 98 | 104 |  |  |  |  | 
16 | NC1=NC(=O)C(c2ccccc2)O1 (centres unmarked) [Pemoline] | -15.2 | -10.6 | 96 | 104 | 101 |  |  |  |  | 
17 | Nc1nc2c(ncn2CCC(CO)CO)c(=O)[nH]1 [Penciclovir] | -3.5 | 0.01 |  |  |  | 100 | 98 | 90.7 |  | 
18 | CC(C)(S)[C@@H](N)C(=O)O [Penicillamine] |  |  |  |  |  |  |  |  | -0.01 | activation at 10 µM [1, 13]: 6%; 0.1 µM (% DMSO) (expanded OPCs; [16]): 86.6 % DMSO; 1 µM (% DMSO) (expanded OPCs; [17]): 87.9 % DMSO; 10 µM (% DMSO) (expanded OPCs; [18]): 92.6 % DMSO
19 | CC1(C)S[C@@H]2[C@H](NC(=O)Cc3ccccc3)C(=O)N2[C@H]1C(=O)O [Penicillin G] |  |  |  |  |  | 107 | 102 | 114 | -9.8 | activation at 10 µM [1, 13]: 1.4%
20 | CC1(C)S[C@@H]2[C@H](NC(=O)COc3ccccc3)C(=O)N2[C@H]1C(=O)O [Penicillin V] |  |  |  |  |  |  |  |  |  | activation at 2 µM [1, 14]: 14.6%; activation at 10 µM [1, 15]: 6.4%; 0.1 µM (% DMSO) (expanded OPCs; [16]): 96.1 % DMSO; 1 µM (% DMSO) (expanded OPCs; [17]): 96.3 % DMSO; 10 µM (% DMSO) (expanded OPCs; [18]): 93.4 % DMSO
21 | CC(=O)CCCCn1c(=O)c2c(ncn2C)n(C)c1=O [Pentoxifylline] | 12.2 | -23.3 | 107 | 101 | 98 | 92.8 | 93.6 | 94.9 | 16.8 | activation at 10 µM [1, 13]: 7.2%
22 | CCCN1C[C@H](CSC)C[C@@H]2c3cccc4[nH]cc(c34)C[C@H]21 [Pergolide] |  |  |  |  |  | 100 | 83.6 | 41 | -15.7 | activation at 0.4 µM [1, 8]: -8.9%
23 | O=C1[C@H]2CCCC[C@H]2C(=O)N1CCCCN1CCN(c2nsc3ccccc23)CC1 [Perospirone, reference compound] | 84.5 | 18.7 | 110 | 164 | 132 |  |  |  |  | EC50 ([1]; Rattus norvegicus, average EC50 for induction of OL differentiation from independent biological replicates, eight concentrations): 100 nM; hit in OL differentiation assay, MRF-TMC ([1]; ● = confirmed hit in this paper's assay): ●
24 | NNCCc1ccccc1 [Phenelzine] | 18 | 18.6 | 78.4 | 80.2 | 93.1 |  |  |  |  | activation at 2 µM [1, 14]: 3.7%; activation at 10 µM [1, 15]: -4.2%; 0.1 µM (% DMSO) (expanded OPCs; [16]): 94.0 % DMSO; 1 µM (% DMSO) (expanded OPCs; [17]): 95.0 % DMSO; 10 µM (% DMSO) (expanded OPCs; [18]): 87.1 % DMSO
25 | c1ccc2c(c1)Nc1ccccc1S2 [Phenothiazine] |  |  |  |  |  | 82.8 | 85.1 | 51.9 | -12.1 | activation at 0.4 µM [1, 8]: 4%
26 | CC(COc1ccccc1)N(CCCl)Cc1ccccc1 (centres unmarked) [Phenoxybenzamine] |  |  |  |  |  |  |  |  | -11 | activation at 10 µM [1, 13]: 35.4%; 0.1 µM (% DMSO) (expanded OPCs; [16]): 109.6 % DMSO; 1 µM (% DMSO) (expanded OPCs; [17]): 116.7 % DMSO; 10 µM (% DMSO) (expanded OPCs; [18]): 142.4 % DMSO
